Measurements published in US20220153745A1, “DISUBSTITUTED BENZOTHIENYL-PYRROLOTRIAZINES AND THEIR USE AS FGFR KINASE INHIBITORS” (Bayer Intellectual Property GmbH, priority 2011, published 2022).
Counter-ions that a name gives are not always drawn.

Experiments:
[1] = tested on: Human umbilical vein endothelial cells (HUVEC); assay: Inhibition of hFGF-2 mediated HUVEC proliferation; assay type: cell-based; settings: 72 h
mTOR = molecular target: T1, mTOR (Homo sapiens, UniProt P42345); assay: mTOR kinase assay (TR-FRET, for comparative purposes); assay type: biochemical; settings: for inhibition at 1 µM: read-out: mTOR % inhibition @ 1 μM, mean inhibition at 1 μM test compound, 40 μM ATP; for mTOR % inhibition @ 1 μM: mean inhibition at 1 μM test compound, 40 μM ATP
T1 construct: human mTOR amino acids from 1360 to 2549; purchased Invitrogen 4753; host or cells: insect cells
T1 sequence (P42345 1360-2549): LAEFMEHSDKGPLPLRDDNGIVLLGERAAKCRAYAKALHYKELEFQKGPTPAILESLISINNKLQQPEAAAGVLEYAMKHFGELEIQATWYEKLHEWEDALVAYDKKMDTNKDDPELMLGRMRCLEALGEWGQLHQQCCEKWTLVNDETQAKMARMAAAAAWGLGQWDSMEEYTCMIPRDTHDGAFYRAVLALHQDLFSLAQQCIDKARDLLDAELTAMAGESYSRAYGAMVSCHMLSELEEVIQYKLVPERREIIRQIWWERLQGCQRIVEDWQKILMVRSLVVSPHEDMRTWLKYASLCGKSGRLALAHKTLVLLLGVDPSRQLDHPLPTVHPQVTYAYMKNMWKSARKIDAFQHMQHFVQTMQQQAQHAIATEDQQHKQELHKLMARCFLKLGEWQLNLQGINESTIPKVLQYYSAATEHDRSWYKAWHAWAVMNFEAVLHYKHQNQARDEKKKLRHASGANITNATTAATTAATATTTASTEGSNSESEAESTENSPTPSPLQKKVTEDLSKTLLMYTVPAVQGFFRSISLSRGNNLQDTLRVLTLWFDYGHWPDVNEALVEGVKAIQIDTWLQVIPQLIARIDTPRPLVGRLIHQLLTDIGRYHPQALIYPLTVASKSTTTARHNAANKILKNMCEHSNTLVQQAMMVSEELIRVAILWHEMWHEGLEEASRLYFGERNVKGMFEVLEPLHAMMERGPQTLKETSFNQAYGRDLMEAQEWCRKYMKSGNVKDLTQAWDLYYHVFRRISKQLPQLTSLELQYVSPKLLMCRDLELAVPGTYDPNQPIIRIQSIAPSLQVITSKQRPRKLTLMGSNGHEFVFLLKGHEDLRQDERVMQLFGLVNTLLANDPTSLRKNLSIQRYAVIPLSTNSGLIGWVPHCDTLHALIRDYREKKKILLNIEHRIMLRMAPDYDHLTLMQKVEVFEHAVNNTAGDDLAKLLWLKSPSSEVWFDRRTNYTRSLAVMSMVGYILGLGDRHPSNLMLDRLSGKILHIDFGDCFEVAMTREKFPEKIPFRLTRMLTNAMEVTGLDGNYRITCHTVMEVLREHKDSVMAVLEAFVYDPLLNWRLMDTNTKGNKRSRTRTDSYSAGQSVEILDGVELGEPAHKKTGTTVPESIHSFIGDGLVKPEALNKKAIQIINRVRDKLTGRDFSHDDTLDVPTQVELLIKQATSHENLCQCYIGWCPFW

| SMILES | IC50 [1] [nM] | inhibition at 1 µM (mTOR) [%] | mTOR % inhibition @ 1 μM (mTOR) [%] |
| --- | --- | --- | --- |
| COc1cc(C)cc2cc(-c3c(CNCC(C)O)c(CN4CCOCC4)n4ncnc(N)c34)sc12 (racemic) [Example 53, rac-1-({[4-Amino-5-(7-methoxy-5-methyl-1-benzothiophen-2-yl)-7-(morpholin-4-ylmethyl)pyrrolo[2,1-f][1,2,4]triazin-6-yl]methyl}amino)propan-2-ol] | 3.3 | 3.3 |  |
| COc1cc(C)cc2cc(-c3c(CO)c(CN4CCNC(=O)C4)n4ncnc(N)c34)sc12 [Example 13, 4-{[4-Amino-6-(hydroxymethyl)-5-(7-methoxy-5-methyl-1-benzothiophen-2-yl)pyrrolo[2,1-f][1,2,4]-triazin-7-yl]methyl}piperazin-2-one] | 17 | 14.9 |  |
| COc1cc(C)cc2cc(-c3c(COCCO)c(CN4CCNC(=O)C4)n4ncnc(N)c34)sc12 [Example 21, 4-({4-Amino-6-[(2-hydroxyethoxy)methyl]-5-(7-methoxy-5-methyl-1-benzothiophen-2-yl)pyrrolo[2,1-f][1,2,4]triazin-7-yl}methyl)piperazin-2-one formiate] | 3.7 | 5 |  |
| COc1cc(C)cc2cc(-c3c(COC4CCC4)c(CN4CCNCC4)n4ncnc(N)c34)sc12 [Example 26, 6-[(Cyclobutyloxy)methyl]-5-(7-methoxy-5-methyl-1-benzothiophen-2-yl)-7-(piperazin-1-ylmethyl)pyrrolo[2,1-f][1,2,4]triazin-4-amine] | 56.7 | 6.8 |  |
| COc1cc(C)cc2cc(-c3c(COCC(N)=O)c(CN4CCN(C(C)=O)CC4)n4ncnc(N)c34)sc12 [Example 34, 2-({7-[(4-Acetylpiperazin-1-yl)methyl]-4-amino-5-(7-methoxy-5-methyl-1-benzothiophen-2-yl)pyrrolo[2,1-f][1,2,4]triazin-6-yl}methoxy)acetamide] | 37.3 | 25.9 |  |
| CNCc1c(-c2cc3cc(C)cc(OC)c3s2)c2c(N)ncnn2c1CN1CCNCC1 [Example 36, 5-(7-Methoxy-5-methyl-1-benzothiophen-2-yl)-6-[(methylamino)methyl]-7-(piperazin-1-ylmethyl)pyrrolo[2,1-f][1,2,4]triazin-4-amine trihydrochloride] |  | 14.4 |  |
| COc1cc(C)cc2cc(-c3c(CN(C)C)c(CN4CCNCC4)n4ncnc(N)c34)sc12 [Example 37, 6-[(Dimethylamino)methyl]-5-(7-methoxy-5-methyl-1-benzothiophen-2-yl)-7-(piperazin-1-ylmethyl)pyrrolo[2,1-f][1,2,4]triazin-4-amine trihydrochloride] |  | 8.6 |  |
| CCN(CC)Cc1c(-c2cc3cc(C)cc(OC)c3s2)c2c(N)ncnn2c1CN1CCNCC1 [Example 43, 6-[(Diethylamino)methyl]-5-(7-methoxy-5-methyl-1-benzothiophen-2-yl)-7-(piperazin-1-ylmethyl)pyrrolo[2,1-f][1,2,4]triazin-4-amine trihydrochloride] |  | 10.1 |  |
| COc1cc(C)cc2cc(-c3c(CNCC(=O)O)c(CN4CCNCC4)n4ncnc(N)c34)sc12 [Example 48, N-{[4-Amino-5-(7-methoxy-5-methyl-1-benzothiophen-2-yl)-7-(piperazin-1-ylmethyl)pyrrolo[2,1-f]-[1,2,4]triazin-6-yl]methyl}glycine trihydrochloride] |  | 4.1 |  |
| COc1cc(C)cc2cc(-c3c(CN[C@H]4CCNC4=O)c(CN4CCOCC4)n4ncnc(N)c34)sc12 [Example 51, (3S)-3-({[4-Amino-5-(7-methoxy-5-methyl-1-benzothiophen-2-yl)-7-(morpholin-4-ylmethyl)pyrrolo[2,1-f][1,2,4]triazin-6-yl]methyl}amino)pyrrolidin-2-one] | 1.2 | 8.4 |  |
| COc1cc(C)cc2cc(-c3c(CN4CCNC(=O)C4)c(CN4CCOCC4)n4ncnc(N)c34)sc12 [Example 52, 4-{[4-Amino-5-(7-methoxy-5-methyl-1-benzothiophen-2-yl)-7-(morpholin-4-ylmethyl)pyrrolo[2,1-f][1,2,4]triazin-6-yl]methyl}piperazin-2-one] | 4 | 4.2 |  |
| COc1cc(C)cc2cc(-c3c(CNCC(C)(C)O)c(CN4CCOCC4)n4ncnc(N)c34)sc12 [Example 54, 1-({[4-Amino-5-(7-methoxy-5-methyl-1-benzothiophen-2-yl)-7-(morpholin-4-ylmethyl)pyrrolo[2,1-f][1,2,4]triazin-6-yl]methyl}amino)-2-methylpropan-2-ol] | 2.2 | 1.7 |  |
| COc1cc(C)cc2cc(-c3c(CN[C@@H]4CCNC4=O)c(CN4CCN(C(C)=O)CC4)n4ncnc(N)c34)sc12 [Example 56, (3R)-3-[({7-[(4-Acetylpiperazin-1-yl)methyl]-4-amino-5-(7-methoxy-5-methyl-1-benzothiophen-2-yl)pyrrolo[2,1-f][1,2,4]triazin-6-yl}methyl)amino]pyrrolidin-2-one] | 18.1 | 16.1 |  |
| COc1cc(C)cc2cc(-c3c(CN4CCNC(=O)C4)c(CN4CCN(C=O)CC4)n4ncnc(N)c34)sc12 [Example 58, 4-({4-Amino-5-(7-methoxy-5-methyl-1-benzothiophen-2-yl)-6-[(3-oxopiperazin-1-yl)methyl]pyrrolo[2,1-f][1,2,4]triazin-7-yl}methyl)piperazine-1-carbaldehyde formiate] |  | 4 |  |
| COc1cc(C)cc2cc(-c3c(CNC(C)=O)c(CN4CCN(C=O)CC4)n4ncnc(N)c34)sc12 [Example 65, N-({4-Amino-7-[(4-formylpiperazin-1-yl)methyl]-5-(7-methoxy-5-methyl-1-benzothiophen-2-yl)pyrrolo[2,1-f][1,2,4]triazin-6-yl}methyl)acetamide formiate] |  | 13.9 |  |
| COc1cc(C)cc2cc(-c3c(CNC(C)=O)c(CN4CCN(C(C)=O)CC4)n4ncnc(N)c34)sc12 [Example 66, N-({7-[(4-Acetylpiperazin-1-yl)methyl]-4-amino-5-(7-methoxy-5-methyl-1-benzothiophen-2-yl)pyrrolo[2,1-f][1,2,4]triazin-6-yl}methyl)acetamide] |  | 15.8 |  |
| COCc1c(-c2cc3cc(C)cc(OC)c3s2)c2c(N)ncnn2c1C#N [Example 69, 4-Amino-6-(methoxymethyl)-5-(7-methoxy-5-methyl-1-benzothiophen-2-yl)pyrrolo[2,1-f][1,2,4]-triazine-7-carbonitrile] |  | 8.7 |  |
| CCOCc1c(-c2cc3cc(C)cc(OC)c3s2)c2c(N)ncnn2c1C#N [Example 70, 4-Amino-6-(ethoxymethyl)-5-(7-methoxy-5-methyl-1-benzothiophen-2-yl)pyrrolo[2,1-f][1,2,4]-triazine-7-carbonitrile] |  | 5.8 |  |
| COc1cc(C)cc2cc(-c3c(CN4CCNC(=O)C4)c(C#N)n4ncnc(N)c34)sc12 [Example 71, 4-Amino-5-(7-methoxy-5-methyl-1-benzothiophen-2-yl)-6-[(3-oxopiperazin-1-yl)methyl]pyrrolo[2,1-f][1,2,4]triazine-7-carbonitrile] |  | 0.1 |  |
| COc1cc(C)cc2cc(-c3c(CNCC(C)(C)O)c(C)n4ncnc(N)c34)sc12 [Example 78, 1-({[4-Amino-5-(7-methoxy-5-methyl-1-benzothiophen-2-yl)-7-methylpyrrolo[2,1-f][1,2,4]triazin-6-yl]methyl}amino)-2-methylpropan-2-ol] |  |  | 5.8 |
| COc1cc(C)cc2cc(-c3c(CN4CCNC(=O)C4)c(Cl)n4ncnc(N)c34)sc12 [Example 80, 4-{[4-Amino-7-chloro-5-(7-methoxy-5-methyl-1-benzothiophen-2-yl)pyrrolo[2,1-f][1,2,4]triazin-6-yl]methyl}piperazin-2-one] |  | 3.9 |  |
| COc1cc(C)cc2cc(-c3c(CNCC(C)(C)O)c(Cl)n4ncnc(N)c34)sc12 [Example 82, 1-({[4-Amino-7-chloro-5-(7-methoxy-5-methyl-1-benzothiophen-2-yl)pyrrolo[2,1-f][1,2,4]triazin-6-yl]methyl}amino)-2-methylpropan-2-ol] |  |  | 7.1 |
| CCOCc1c(-c2cc3cc(C)cc(OC)c3s2)c2c(N)ncnn2c1Cl [Example 83, 7-Chloro-6-(ethoxymethyl)-5-(7-methoxy-5-methyl-1-benzothiophen-2-yl)pyrrolo[2,1-f][1,2,4]-triazin-4-amine] |  | 6.3 |  |
| COc1cc(C)cc2cc(-c3c(Cl)c(CN4CCNCC4)n4ncnc(N)c34)sc12 [Example 85, 6-Chloro-5-(7-methoxy-5-methyl-1-benzothiophen-2-yl)-7-(piperazin-1-ylmethyl)pyrrolo[2,1-f]-[1,2,4]triazin-4-amine trihydrochloride] |  | 0.9 |  |
| CCOCc1c(-c2cc3cc(C)cc(OC)c3s2)c2c(N)ncnn2c1CN1CCNC1=O [Example 87, 1-{[4-Amino-6-(ethoxymethyl)-5-(7-methoxy-5-methyl-1-benzothiophen-2-yl)pyrrolo[2,1-f][1,2,4]-triazin-7-yl]methyl}imidazolidin-2-one] |  | 12.7 |  |
| COCc1c(-c2cc3cccc(OC)c3s2)c2c(N)ncnn2c1CN1CCNC(=O)C1 [Example 88, 4-{[4-Amino-5-(7-methoxy-1-benzothiophen-2-yl)-6-(methoxymethyl)pyrrolo[2,1-f][1,2,4]triazin-7-yl]methyl}piperazin-2-one] |  | 5.3 |  |
| CCOCc1c(-c2cc3cc(C)cc(OC)c3s2)c2c(N)ncnn2c1CN[C@H]1CCNC1=O [Example 93, (3S)-3-({[4-Amino-6-(ethoxymethyl)-5-(7-methoxy-5-methyl-1-benzothiophen-2-yl)pyrrolo[2,1-f]-[1,2,4]triazin-7-yl]methyl}amino)pyrrolidin-2-one] |  | 12.5 |  |
| CCOCc1c(-c2cc3cc(C)cc(OC)c3s2)c2c(N)ncnn2c1CN1CCS(=O)(=O)CC1 [Example 99] |  | 5.3 |  |
| CCOCc1c(-c2cc3cc(C)cc(OC)c3s2)c2c(N)ncnn2c1C(=O)NCCO [Example 108] |  | 8.5 |  |
